*: point of attachment. AMC = Cc1cc(=O)oc2cc(N*)ccc12

One assay addresses T1, HDAC6 (Homo sapiens, UniProt Q9UBN7).
T1 construct: purchased ENZO Life Sciences BML-SE508
The assay is described as follows: HDAC activity with fluorogenic lysyl substrates. The assay is classed as biochemical. Conditions: 50 μM substrate. Put shortly: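 Fluorescence of AMC freed by trypsin after deacylation gave the activity read-out. Reactions held recombinant human HDAC or SIRT enzymes, or HeLa nuclear or whole-cell extract, with acylated lysyl-AMC substrates at 37 °C, following SIRT1 kit instructions.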

The next assay deals with HDAC4. Briefly: HDAC activity with fluorogenic lysyl substrates. The format is biochemical, human. Conditions: 50 μM substrate. The procedure: The Ac-Lys(Succ.)-AMC substrate was tested for activity with recombinant preparations of human HDACs 1-11, SIRTs 1-4, 6 and 7, a complex of HDAC3 with a fragment of the activating protein NCOR1 and with HeLa nuclear extract, a rich source of active HDACs in their native multiprotein complexes.
Enzyme and extract catalog products obtained from ENZO Life Sciences included: HDAC1 (Cat. # BML-SE456), HDAC2 (Cat. # BML-SE500), HDAC3 (Cat. # BML-SE507), HDAC3/NCOR1 Complex (Cat. # BML-SE515), HDAC6 (Cat. # BML-SE508), HDAC8 (Cat. # BML-SE145), HDAC10 (Cat. # BML-SE559), HDAC11 (Cat. # BML-SE560), SIRT1 (Cat. # BML-SE239), SIRT2 (Cat. # BML-SE251), SIRT3 (Cat. # BML-SE270), SIRT5 (Cat. # BML-SE555), HeLa Nuclear Extract (Cat. # BML-KI140), Trypsin (“Fluor de Lys Developer”, 80 mg/ml bovine trypsin in 1 mM HCl, Cat. # BML-KI105 or “Fluor de Lys Developer II”, 80 mg/ml bovine trypsin in 1 mM HCl, Cat. # BML-KI176). […] Enzymes obtained from BPS Bioscience, San Diego, Calif. included: human recombinants SIRT4 (Cat. #50015), SIRT6 (Cat. #50017), SIRT7 (Cat. #50018). […]

The test system of the next assay is HeLa cells. Briefly: Intact HeLa cell desuccinylation/deacetylation assay. The format is cell-based, human. Conditions: 200 μM substrate in medium, four hours. Here is the method: HeLa cells were cultured to 95% confluence in the wells of ½-volume 96-well plates. […] After the indicated time, cells were lysed with detergent and trypsin added to release AMC from desuccinylated or deacetylated substrate and then fluorescence read (Ex.360 nm/Em. 460 nm). For “0 hr.” samples, substrate, inhibitors, lysis buffer and trypsin were added simultaneously. Bars represent the mean of three determinations and the error bars the Standard Deviation from that mean. Statistically significant differences between the fluorescences of “4 hr.” and “0 hr.” samples (Student's t-test) are indicated by asterisks as follows: *,p<0.02; **, p<0.002.
An assay employing Ac-Lys(Ac.)-AMC to measure the HDAC and sirtuin deacetylase activity of intact cultured cells has been described (Howitz, K. T. et al. Nature 425, 191-196 (2003); Product Manual of Enzo Life Sciences Cat. # BML-AK-503, “HDAC Fluorimetric Cellular Activity Assay Kit”, Appendix F). Ac-Lys(Ac)-AMC is added to the culture medium, enters the cells and is deacetylated by HDACs and sirtuins in their native intracellular context. Measurement of the amount of Ac-Lys-AMC produced by intracellular deacetylation is then accomplished by detergent lysis of the cells and release of the AMC fluorophore by trypsin. We therefore investigated whether Ac-Lys(Succ.)-AMC could be used to measure intracellular desuccinylation activity, in a similar fashion, with cultured HeLa cells. […] These latter, deacetylation results are consistent with previous observations made with this assay system (see Howitz, K. T. et al. Nature 425, 191-196 (2003) and Appendix F).
Assays (FIG. 10) were performed according to the manufacturer's instructions for the ““HDAC Fluorometric Cellular Activity Assay Kit” (ELS Cat. # BML-AK503), with exceptions described as follows. Where indicated the “Fluor de Lys Substrate” (Ac-Lys(Ac.)-AMC; ELS Cat. # BML-KI104) was replaced with Ac-Lys(Succ.)-AMC (1).

Another assay relates to HeLa cell extracts. The assay is described as follows: HeLa cell extract Ac-Lys(ε-succinyl)-AMC desuccinylation activity. The assay is classed as biochemical, human. Conditions: 50 μM substrate, 500 μM NAD^+, no inhibitor, 2 hr., 37° C. Here is the method: Enzyme and extract catalog products obtained from ENZO Life Sciences included: HDAC1 (Cat. # BML-SE456), HDAC2 (Cat. # BML-SE500), HDAC3 (Cat. # BML-SE507), HDAC3/NCOR1 Complex (Cat. # BML-SE515), HDAC6 (Cat. # BML-SE508), HDAC8 (Cat. # BML-SE145), HDAC10 (Cat. # BML-SE559), HDAC11 (Cat. # BML-SE560), SIRT1 (Cat. # BML-SE239), SIRT2 (Cat. # BML-SE251), SIRT3 (Cat. # BML-SE270), SIRT5 (Cat. # BML-SE555), HeLa Nuclear Extract (Cat. # BML-KI140), Trypsin (“Fluor de Lys Developer”, 80 mg/ml bovine trypsin in 1 mM HCl, Cat. # BML-KI105 or “Fluor de Lys Developer II”, 80 mg/ml bovine trypsin in 1 mM HCl, Cat. # BML-KI176). […] Enzymes obtained from BPS Bioscience, San Diego, Calif. included: human recombinants SIRT4 (Cat. #50015), SIRT6 (Cat. #50017), SIRT7 (Cat. #50018). HeLa whole cell extract was obtained from HeLa S3 cells (American Type Culture Collection) grown in a medium of MEM/10% fetal bovine serum (FBS) as follows: 1) 9×10^6 cells were suspended by trypsinization, followed by a phosphate buffered saline (PBS) rinse and addition of MEM/10% FBS (1.5 mL) to eliminate trypsin before transfer to a 15 mL conical tube; 2) cells were sedimented by a low speed centrifugation, gently resuspended in PBS and sedimented again and supernatant removed; 3) lysis was induced by resuspension in 0.8 mL 50 mM Tris/HCl, pH 8.0 with the non-denaturing detergent NP-40 (0.5%), placement on ice and brief vortexing every 5 min. for 30 min.; 4) 100 μl of a concentrated salt solution in the same buffer was added in order to bring the final buffer composition to 50 mM Tris/C1, pH 8.0, 137 mM NaCl, 2.7 mM KCl, 1 mM MgCl2, 0.5% NP-40; 5) particulate matter was cleared by centrifugation and the cleared lysate supernatant transferred to a 1.5 mL Eppendorf tube and stored on ice until use in activity assays.
Assays were performed at 37° C., according to the manufacturer's instructions for the “SIRT1 Fluorometric Drug Discovery Kit” from Enzo Life Sciences (ELS) (Cat. # BML-AK555), with exceptions described as follows. […]

A further assay has as its target T2, SIRT5 (Homo sapiens, UniProt Q9NXA8).
T2 sequence (Q9NXA8 37-310): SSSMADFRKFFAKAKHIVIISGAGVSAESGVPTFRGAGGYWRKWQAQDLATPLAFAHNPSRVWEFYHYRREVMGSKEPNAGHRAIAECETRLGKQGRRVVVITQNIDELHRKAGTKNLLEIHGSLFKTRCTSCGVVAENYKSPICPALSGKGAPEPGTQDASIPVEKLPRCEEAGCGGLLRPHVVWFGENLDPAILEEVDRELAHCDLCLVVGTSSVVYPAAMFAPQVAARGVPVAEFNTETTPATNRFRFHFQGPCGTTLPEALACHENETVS
Conditions: high and uncertain; maximum substrate concentration of 5 mM; read-out: Km estimate; cited from earlier work.

T1 sequence (Q9UBN7 whole entry): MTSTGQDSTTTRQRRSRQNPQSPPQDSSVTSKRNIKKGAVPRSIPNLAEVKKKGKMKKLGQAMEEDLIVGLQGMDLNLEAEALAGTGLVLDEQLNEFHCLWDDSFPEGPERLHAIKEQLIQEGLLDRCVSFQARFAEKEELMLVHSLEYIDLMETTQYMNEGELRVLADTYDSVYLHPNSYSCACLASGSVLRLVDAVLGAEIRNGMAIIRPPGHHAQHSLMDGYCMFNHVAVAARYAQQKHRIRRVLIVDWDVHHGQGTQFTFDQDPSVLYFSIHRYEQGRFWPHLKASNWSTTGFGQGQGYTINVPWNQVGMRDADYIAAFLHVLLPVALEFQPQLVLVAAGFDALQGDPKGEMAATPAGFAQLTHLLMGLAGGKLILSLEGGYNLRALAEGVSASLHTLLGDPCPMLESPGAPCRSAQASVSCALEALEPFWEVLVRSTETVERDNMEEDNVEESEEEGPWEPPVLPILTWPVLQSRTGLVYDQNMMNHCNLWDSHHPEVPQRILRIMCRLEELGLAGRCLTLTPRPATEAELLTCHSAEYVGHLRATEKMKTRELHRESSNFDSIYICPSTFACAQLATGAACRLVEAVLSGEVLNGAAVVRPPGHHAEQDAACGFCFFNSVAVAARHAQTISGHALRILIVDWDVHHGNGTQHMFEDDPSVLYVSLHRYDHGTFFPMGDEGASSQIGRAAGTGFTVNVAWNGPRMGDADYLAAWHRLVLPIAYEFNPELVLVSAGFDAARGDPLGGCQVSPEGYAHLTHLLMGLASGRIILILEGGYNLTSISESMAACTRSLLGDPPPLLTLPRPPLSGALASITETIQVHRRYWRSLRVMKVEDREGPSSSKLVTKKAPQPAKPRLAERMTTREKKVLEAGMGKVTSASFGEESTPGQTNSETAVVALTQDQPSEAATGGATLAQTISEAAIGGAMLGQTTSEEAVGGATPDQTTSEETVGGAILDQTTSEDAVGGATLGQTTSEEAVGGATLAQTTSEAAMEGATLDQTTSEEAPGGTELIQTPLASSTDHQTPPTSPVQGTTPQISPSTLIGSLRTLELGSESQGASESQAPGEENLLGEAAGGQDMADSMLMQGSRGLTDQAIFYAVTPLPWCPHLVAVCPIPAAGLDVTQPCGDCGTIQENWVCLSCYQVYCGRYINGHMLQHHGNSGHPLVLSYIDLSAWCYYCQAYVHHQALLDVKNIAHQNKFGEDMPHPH

Turning to `CC(=O)NCCCCC(NC(C)=O)C(=O)Nc1ccc2c(C)cc(=O)oc2c1` (centres unmarked) [Ac-Lys(Ac.)-AMC, Ac-Lys(ε-acetyl)-AMC, reference compound], at HDAC6, the “Activity” value worked out at 1.0 pmol/min/µg. Moreover, in the assay with HDAC4, the “Activity (pmol/min/μg)” value was “Undetectable”. Moreover, in the assay with HeLa cells, the “Intracellular desuccinylation/deacetylation of substrate” value was “significant deacetylation”.

Consider `CC(=O)N[C@@H](CCCCNC(=O)CCC(=O)O)C(=O)Nc1ccc2c(C)cc(=O)oc2c1` [Compound 1, N—(N^α-acetyl-L-Lysine(N^ε-succinyl))-AMC], for which the “Activity (pmol/min/μg)” value at HDAC6 and in the assay with HDAC4 was “Undetectable” in each case. Moreover, the “Intracellular desuccinylation/deacetylation of substrate” value in the assay with HeLa cells is reported as “no significant desuccinylation”. The “Maximum fluorescence increase over 0 hr./NL” value with HeLa cell extracts is on record as 22,000.

What is called Km is the substrate concentration at which the rate is half of its maximum. “Ac-Arg-His-Lys-Lys(ε-acetyl)-AMC (Ac-RHKK(Ac)-{AMC}; SMILES CC(=O)NCCCC[C@H](NC(=O)[C@H](CCCCN)NC(=O)[C@H](Cc1c[nH]cn1)NC(=O)[C@H](CCCNC(=N)N)NC(C)=O)C(=O)Nc1ccc2c(C)cc(=O)oc2c1) [Ac-RHKK(Ac)-AMC, p53 peptide fluorogenic deacetylase substrate, Cat. # BML-KI177, reference compound]”: in the assay with SIRT5, the Michaelis-Menten constant (Km) is 8.9 mM.

These data come from patent US10920265B2, “Compounds and methods for detection of enzymes that remove methyl succinyl groups from epsilon-amino lysine moieties” (Enzo Life Sciences, Inc., priority 2011, dated 2021).
